Reference: the NIST ThermoML archive (doi:10.1016/j.jct.2016.06.016)

How the values were obtained:
[1] = xn = mol fraction of the nth substance listed; settings: 100 kPa, Liquid, x2 = 0; for viscosity: Concentric cylinders viscometry; for mass density: Vibrating tube method
[2] = refractive index (Na D-line) (dimensionless); xn = mol fraction of the nth substance listed; settings: 100 kPa, Liquid, Standard Abbe refractometry, x2 = 0
[3] = 100 kPa, Liquid; for viscosity: Concentric cylinders viscometry; for mass density: Vibrating tube method
[4] = refractive index (Na D-line) (dimensionless); settings: 100 kPa, Liquid, Standard Abbe refractometry

CCCCCCO [hexan-1-ol] + CCOC(=O)CCC(=O)OCC
Settings | mass density, [1] [kg/m3] | refractive index, [2] | viscosity, [1] [mPa·s]
288.15 K | 822.26 | 1.4196 | 6.308
293.15 K | 818.7 | 1.4176 | 5.332
298.15 K | 815.12 | 1.4156 | 4.538
303.15 K | 811.52 | 1.4136 | 3.896
308.15 K | 807.89 | 1.4117 | 3.361
313.15 K | 804.25 | 1.4097 | 2.917
318.15 K | 800.56 | 1.4078 | 2.546
323.15 K | 796.85 | 1.4058 | 2.241

CCCCO [butan-1-ol] + CCOC(=O)CCC(=O)OCC
Settings | mass density, [1] [kg/m3] | refractive index, [2] | viscosity, [1] [mPa·s]
288.15 K | 813.46 | 1.4012 | 3.365
293.15 K | 809.66 | 1.3992 | 2.913
298.15 K | 805.84 | 1.3972 | 2.563
303.15 K | 801.99 | 1.3951 | 2.257
308.15 K | 798.12 | 1.393 | 1.994
313.15 K | 794.22 | 1.391 | 1.779
318.15 K | 790.28 | 1.3889 | 1.576
323.15 K | 786.29 | 1.3867 | 1.422

CCCO [propan-1-ol] + CCOC(=O)CCC(=O)OCC
Settings | mass density, [1] [kg/m3] | refractive index, [2] | viscosity, [1] [mPa·s]
288.15 K | 807.75 | 1.3875 | 2.514
293.15 K | 803.77 | 1.3854 | 2.208
298.15 K | 799.76 | 1.3834 | 1.95
303.15 K | 795.72 | 1.3814 | 1.727
308.15 K | 791.64 | 1.3792 | 1.542
313.15 K | 787.52 | 1.377 | 1.378
318.15 K | 783.36 | 1.3748 | 1.236
323.15 K | 779.14 | 1.3726 | 1.124

CCOC(=O)CCC(=O)OCC [diethyl butanedioate]
Settings | mass density, [3] [kg/m3] | refractive index, [4] | viscosity, [3] [mPa·s]
288.15 K | 1044.83 | 1.4217 | 3.195
293.15 K | 1039.63 | 1.4195 | 2.807
298.15 K | 1034.44 | 1.4173 | 2.491
303.15 K | 1029.25 | 1.4151 | 2.229
308.15 K | 1024.08 | 1.4129 | 2.008
313.15 K | 1018.9 | 1.4108 | 1.821
318.15 K | 1013.72 | 1.4088 | 1.66
323.15 K | 1008.55 | 1.4067 | 1.523
